Data from patent US9023407B2, “Plant extract for treating diabetes and process for making same” (Development Center for Biotechnology, priority 2012, dated 2015).
Marks after values point to notes of the source that are not given here.

Assays:
Sprague-Dawley rats = test: Glucose tolerance test in normal rats; type: in vivo, rat; conditions: 10 mg/kg
Method: Twenty-six (26) Sprague-Dawley rats were divided into four groups: the placebo group (7 rats, to be administered with 10% Tween 20), the positive control group (7 rats, to be administered with glibenclamide), the 250 mg/kg HC group (6 rats, to be administered with 250 mg/kg ethanol extract of leaves and pseudostems of Hedychium coronarium Koening ), and the 750 mg/kg HC group (6 rats, to be administered with 750 mg/kg ethanol extract of the leaves and pseudostems of Hedychium coronarium Koening ). The rats were fasted for 7 hours and then administered with 250 mg/kg ethanol extract of leaves and pseudostems of Hedychium coronarium Koening (the 250 mg/kg HC group), 750 mg/kg ethanol extract of leaves and pseudostems of Hedychium coronarium Koening (the 750 mg/kg HC group), 10 mg/kg glibenclamide (the positive control group), or 10% Tween 20 (the placebo/control group). After 30 minutes, each rat was administered with glucose at a total amount of 5 g/kg, orally (2.5 g/kg) and subcutaneously (2.5 g/kg). Blood was drawn from each rat at the intervals of 0, 30, 60, 90 and 120 minutes for the measurement of glucose (mg/DL). […]
The test rats and procedure were as those in Example 1. However, in this example, 24 Sprague-Dawley rats were divided into four groups: the placebo group (6 rats, to be administered with water), the positive control group (6 rats, to be administered with 10 mg/kg glibenclamide), the 0.4 g/kg HC group (6 rats, to be administered with 0.4 g/kg water-ethanol extract of leaves and pseudostems of Hedychium coronarium Koening ), and the 0.8 g/kg HC group (6 rats, to be administered with 0.8 g/kg water-ethanol extract of leaves and pseudostems of Hedychium coronarium Koening ). After 30 minutes, each rat was administered with glucose at a total amount of 5 g/kg, orally (2.5 g/kg) and subcutaneously (2.5 g/kg). Blood was drawn from each animal at 30-minute intervals for the measurement of glucose (mg/DL). […]

[1] = system: Sprague-Dawley rats with type I diabetes; test: Insulin resistance test in rats with type I diabetes; type: in vivo, rat; conditions: 0.3 U/kg insulin subcutaneous
Method: Eighteen (18) Sprague-Dawley rats with type I diabetes were divided into three groups: the control group (6 rats, to be administered with 10% Tween 20), the insulin group (6 rats, to be subcutaneously administered with 0.3 U/kg insulin) and the insulin plus HC group (6 rats, to be subcutaneously administered with 0.3 U/kg insulin and orally administered with 1.0 g/kg of ethanol extract of leaves and pseudostems of Hedychium coronarium Koening ). The rats were fasted for 4 hours and then administered with 10% Tween 20 (the control group), 0.3 U/kg insulin (the insulin group) or 0.3 U/kg insulin plus 1.0 g/Kg of ethanol extract of leaves and pseudostems of Hedychium coronarium Koening (the insulin plus HC group). After administration of 2.5 g/kg glucose, blood was drawn from each animal at 30-minute intervals for the measurement of glucose (mg/DL).

Compound | Concentration of blood glucose (Sprague-Dawley rats; Example 1, 0 min) | Concentration of blood glucose (Sprague-Dawley rats; Example 1, 30 min) | Concentration of blood glucose (Sprague-Dawley rats; Example 1, 60 min) | Concentration of blood glucose (Sprague-Dawley rats; Example 1, 90 min) | Concentration of blood glucose (Sprague-Dawley rats; Example 1, 120 min) | Concentration of blood glucose (Sprague-Dawley rats; Example 9, 0 min) | Concentration of blood glucose (Sprague-Dawley rats; Example 9, 30 min) | Concentration of blood glucose (Sprague-Dawley rats; Example 9, 60 min) | Concentration of blood glucose (Sprague-Dawley rats; Example 9, 90 min) | Concentration of blood glucose (Sprague-Dawley rats; Example 9, 120 min) | Concentration of blood glucose ([1]; 0 min) | Concentration of blood glucose ([1]; 30 min) | Concentration of blood glucose ([1]; 60 min) | Concentration of blood glucose ([1]; 90 min)
COc1ccc(Cl)cc1C(=O)NCCc1ccc(S(=O)(=O)NC(=O)NC2CCCCC2)cc1 [Glibenclamide, glibenclamide] | 99 ± 2.7 mg/dL | 150.7 +/− 15.2** mg/DL | 121.4 +/− 10.2** mg/DL | 101.6 +/− 6.7** mg/DL | 83.4 +/− 2.5*** mg/DL | 94.3 ± 3.8 mg/dL | 173.8 +/− 14.5*** mg/DL | 101.8 +/− 8.4*** mg/DL | 82.7 +/− 8.1*** mg/DL | 68.8 +/− 5.9*** mg/DL |  |  |  | 
Insulin: insulin, subcutaneously administered at 0.3 U/kg |  |  |  |  |  |  |  |  |  |  | 522.5 ± 27.1 mg/dL | 695.8 +/− 18.7** mg/DL | 593.3 +/− 16.2* mg/DL | 486.2 +/− 9.6* mg/DL
